Data as given in patent US6841535B2, “Peptide-mediated transfection agents and methods of use” (Active Motif, priority 2000, dated 2005).

Assays:
Assay type in all cases: cell-based
[1] = test system: HS-68 and NIH 3T3 cell lines; assay: Drug delivery by vector peptides (ANS and Bis-ANS); conditions: transfection of ANS and Bis-ANS; incubated with peptide at a molar ratio of 1:20; 1 h
Description: For investigation of drug delivery, we used the naphthalene derivatives ANS and Bis-ANS, which have intrinsic fluorescence. The drugs was incubated with peptide at a molar ratio of 1:20, followed by overlay of the complex onto cultured cells. This was followed by incubation for 1 h. Then cells were extensively washed and observed by microscopy.
(§1) The results of the experiments testing the transfection properties of the peptides are presented as a table in which the sequences are aligned for optimal comparison: […]

[2] = test system: human fibroblastic cell line (HS-68) and Cos-7; assay: Pep-2-mediated delivery of FITC-labeled peptides into cells
Description: (A) Pep-2-mediated delivery of Pep-A at 37 degrees C., (B) Pep-2-mediated delivery of Pep-B at 37 degrees C., (C) Pep-2-mediated delivery of Pep-A at 4 degrees C., (D) concentration dependence of Pep-2-mediated delivery of Pep-A. The efficiency of transfection was determined by counting fluorescent cells. Experiments were performed in the presence (dark bars) or absence (open bars) of serum and at 4 degrees C. (dashed bars).
We next evaluated the ability of Pep-2 to deliver peptides and LMW and HMW proteins into a human fibroblastic cell line (HS-68) and Cos-7. FITC-labeled Pep-A (51-mer) and Pep-B (32-mer) at a concentration of 5 10^−8 M were incubated with different concentrations of Pep-2 from 5 10^−8 M (ratio 1/1) to 2 10^−6 M (ratio 40/1), in serum-free cell culture medium for 30 minutes at 37° C. Cultured cells 0.5 to 1×10^6/35 mm^2 were then overlaid with the preformed Pep-2/peptide complexes for 30 minutes in the presence or absence of FCS. Complexes were formed prior to addition of FCS to avoid interactions between Pep-2 and serum proteins. Following this transfection step, fresh DMEM supplemented with serum was added to the cells for another 30 minutes, after which cells were extensively washed, and examined by fluorescence microscopy. […] Finally, we evaluated the effect of serum in the cell culture medium on the efficiency of peptide transfection.

[3] = test system: human HS68, murine NIH 3T3 fibroblasts or cos cells; assay: Cellular localization of Pep-2; conditions: standard cell culture conditions; same at 4° C. or with okadaic acid
From the text: The rationale in the design of the novel peptide vector, Pep-2, for efficient protein delivery into cells was to satisfy two major requirements: the ability to cross cell membranes and high affinity for protein sequences. To this aim, we elaborated a 21 residue peptide, designated Pep-2 ([…]-cya; SEQ ID NO:7), consisting of three domains: (1) a hydrophobic Trp-rich motif containing five Trp-residues (KETWWETWWTEW (SEQ ID NO:32)), required for efficient targeting to the cell membrane and for forming hydrophobic interactions with proteins, (2) a hydrophilic Lys-rich domain (KKKRKV (SEQ ID NO:33)) derived from the NLS of SV40 large T antigen, required to improve intracellular delivery and solubility of the peptide vector, and (3) a spacer domain (Ser-Gln-Pro), separating the two domains mentioned above, containing a Pro residue, which improves the flexibility and the integrity of both the hydrophobic and the hydrophilic domains. Peptides were acetylated at their N-terminus and synthesized with a cysteamine group at their C-terminus, so as to enable coupling of fluorescent probes (for example, FITC), useful for cellular localization of the peptide. We first investigated the ability of Pep-2 to penetrate into cells and characterized its subcellular localization. […]

[4] = test system: HS-68 and NIH 3T3 cell lines; assay: Peptide delivery by vector peptides (fluorescently labeled peptide B / peptide A); conditions: transfection of fluorescently labeled peptide; one micromolar vector peptide; 1 h
Description: (§2) We evaluated the ability of peptides designed according to principles described herein, as well as variants thereof, to deliver peptides and proteins into HS-68 and NIH 3T3 cell lines. Peptide delivery was performed with a 32 mer peptide (peptide B), and in some cases a […] peptide (peptide A). The peptides were fluorescently labeled. Peptides (5.0×10^−8M or 5.0×10^−7M) were incubated with one micromolar vector peptide in cell culture medium in the absence of serum for 30 min. Cultured cells (0.5 to 1.0×10^6) were then overlaid with the preformed peptide/vector peptide complexes in 500 μL DMEM for one hour in the presence or absence of FCS. Complexes were formed prior to addition of FCS to avoid interactions between ep-vector and serum proteins. Following this transfection step, fresh DMEM supplemented with serum was added for another hour. Then cells were extensively washed, fixed and analyzed by fluorescence microscopy.
as §1

Jurkat T and WI 38 cells = assay: Pep-2 delivery of p27(kip1), cell cycle arrest in G1 (FACS, BrDu); conditions: Pep-2 alone
Description: The number of cells in the G1 phase was determined by BrDU incorporation.
The number of cells in the G1 phase was determined by FACs analysis.
p27(kip1) was expressed in E coli, and purified as a his-tagged protein. Pep-2/p27kip1 complexes were formed in PBS (500 μl of DMEM containing 50 nM of protein and 0.1 μM of Pep-2) and incubated for 30 min at 37° C. Jurkat T and WI 38 cells grown to 75% confluency were then overlaid with these preformed complexes. After 1 hr incubation at 37° C., fresh DMEM supplemented with 10% foetal calf serum was added to the cells, without removing the overlay of Pep-2/p27^Kip1, and cells were returned to the incubator for another 30 h. Experiments were performed on both non-synchronized and synchronized cells. The number of cells arrested in G1 was determined both by FACS analysis and BrDu incorporation.

[5] = test system: HS-68 and NIH 3T3 cell lines; assay: Protein delivery by vector peptides (GFP); conditions: transfection of GFP; incubated with peptide at a molar ratio of 1:20; 1 h
Description: as §2
To investigate protein delivery we tested the delivery into cells of the fluorescent protein GFP. The protein was incubated with peptide at a molar ratio of 1:20, followed by overlay of the complex onto cultured cells. This was followed by incubation for 1 h. Then cells were extensively washed and fixed with formalin before observation.
as §1

[6] = test system: human fibroblastic cell line (HS-68) and Cos-7; assay: Pep-2-mediated delivery of GFP and β-Gal proteins into cells
Description: The efficiency of transfection was determined by counting fluorescent cells or blue stained cells. (A) Control of beta gal in the absence of Pep-2, (B) Pep-2 delivery of beta gal at 37 degrees C., (C) Pep-2 delivery of beta gal at 4 degrees C., (D) Pep-2 delivery of GFP at 37 degrees C. (E) concentration dependent Pep-2 delivery of GFP. Experiments were performed in the absence (open bars) or presence (dark bars) of serum.
We next evaluated the ability of Pep-2 to deliver peptides and LMW and HMW proteins into a human fibroblastic cell line (HS-68) and Cos-7. FITC-labeled Pep-A (51-mer) and Pep-B (32-mer) at a concentration of 5 10^−8 M were incubated with different concentrations of Pep-2 from 5 10^−8 M (ratio 1/1) to 2 10^−6 M (ratio 40/1), in serum-free cell culture medium for 30 minutes at 37° C. Cultured cells 0.5 to 1×10^6/35 mm^2 were then overlaid with the preformed Pep-2/peptide complexes for 30 minutes in the presence or absence of FCS. Complexes were formed prior to addition of FCS to avoid interactions between Pep-2 and serum proteins. Following this transfection step, fresh DMEM supplemented with serum was added to the cells for another 30 minutes, after which cells were extensively washed, and examined by fluorescence microscopy. […] Conversely, we observed a large decrease in the efficiency of transfection at a ratio greater than 30/1, which may be explained by either precipitation or aggregation of Pep-2/peptide complexes to the cell membrane. […] Finally, we evaluated the effect of serum in the cell culture medium on the efficiency of peptide transfection.
To investigate protein delivery we chose to monitor cell delivery of three very different types of proteins: 30 kDa GFP, 119 kDa β-Gal, and specific antibodies. […] Cells were then extensively washed prior to observation and the efficiency of protein delivery was determined by counting fluorescent cells or by monitoring enzymatic β-galactosidase activity by X-Gal staining. […]

## KETWWETWWTEWSQPKKKRKV [Pep-2]
[1]
  Drug: 5%
[2]
  effect of serum (FCS 10%) on efficiency of peptide delivery: not affected
[2]; Pep-2/Pep-A molar ratio of 20/1
  cells with internalized fluorescent peptide localized to the nucleus: more than 90%
[3]
  subcellular localization: nucleus
[4]
  Pep: 5%
Jurkat T and WI 38 cells
  effect on cell cycle progression: no effect on cell cycle progression
[5]
  Pro: 5%
[6]
  effect of 10% FCS on efficiency of protein delivery: not affected
[6]; 37 degrees C.
  cells containing fluorescent GFP staining in their cytoplasm: more than 80%
[6]; X-Gal staining
  cells exhibiting strong and uniform β-Gal activity: All cells
